Measured values as given in ChEMBL document CHEMBL5352419, “Design, synthesis, and biological evaluation of tetrahydroquinoline amphiphiles as membrane-targeting antimicrobials against pathogenic bacteria and fungi” (Eur J Med Chem, 2022).
Converted amounts (≈) assume the structure as drawn. The source made the active and inactive calls. The calls are words filed in the database; no cut-off is given here.

Tests used:
Candida albicans [1] = assay: Antimicrobial activity against Candida albicans CMCC98001 assessed as fungal growth inhibition incubated for 48 hrs by Sabouraud Dextrose broth based dilution assay; assay type: functional
[2] = Cytotoxicity against mouse corneal epithelial cells assessed as viable cells at 25 ug/mL incubated for 24 hrs by CCK-8 assay relative to control; assay type: toxicity, cell-based, Corneal epithelial cell; details: at 25 µg/mL, read-out: Activity
Cell membrane [3] = assay: Disruption of outer membrane integrity in Acinetobacter baumannii ATCC17978
[4] = Cytotoxicity against mouse NCTC clone 929 cells assessed as viable cells at 25 ug/mL incubated for 24 hrs by CCK-8 assay relative to control; assay type: toxicity, cell-based; details: NCTC clone 929 (L929) cells, at 25 µg/mL, read-out: Activity
Staphylococcus aureus [5] = assay: Antibiofilm activity against Staphylococcus aureus ATCC29213 assessed as inhibition of biofilm formation at 0.39 ug/mL incubated for 24 hrs by crystal violet staining based analysis relative to control; assay type: functional
Cell membrane [6] = assay: Induction of outer membrane permeabilization in Escherichia coli ATCC25922 assessed as increase in fluorescence intensity at 1 to 8 times of MIC measured for 1 hrs by NPN uptake assay
Escherichia coli [7] = assay: Antimicrobial activity against Escherichia coli ATCC25922 assessed as bacterial growth inhibition incubated for 24 hrs in presence of 3220 ug/mL Na+ by Muller Hinton broth based dilution assay; assay type: functional
[8] = Cytotoxicity against mouse J774.A1 cells assessed as viable cells at 3.125 ug/mL incubated for 24 hrs by CCK-8 assay relative to control; assay type: toxicity, cell-based; details: at 3.125 µg/mL, read-out: Activity
Staphylococcus aureus [9] = assay: Induction of drug resistance in Staphylococcus aureus ATCC29213 assessed as change in MIC at sub-inhibitory concentration incubated for 21 to 22 passages; assay type: functional
Escherichia coli [10] = assay: Disruption of preformed biofilm in Escherichia coli ATCC25922 assessed as residual preformed biofilm at 6.25 ug/mL incubated for 24 hrs by crystal violet staining based analysis relative to control; assay type: functional; details: dose 6.25 µg/ml
Candida albicans [11] = assay: Antimicrobial activity against Candida albicans CMCC98001 assessed as fungal growth inhibition incubated for 48 hrs in presence of 100 ug/mL Ca2+ by Sabouraud Dextrose broth based dilution assay; assay type: functional
Staphylococcus aureus [12] = assay: Disruption of preformed biofilm in Staphylococcus aureus ATCC29213 assessed as residual preformed biofilm at 12.5 ug/mL incubated for 24 hrs by crystal violet staining based analysis relative to control; assay type: functional; details: dose 12.5 µg/ml
Candida albicans [13] = assay: Antimicrobial activity against Candida albicans CMCC98001 assessed as fungal growth inhibition incubated for 48 hrs in presence of 24.3 ug/mL […] by Sabouraud Dextrose broth based dilution assay; assay type: functional
Staphylococcus aureus [14] = assay: Antimicrobial activity against Staphylococcus aureus ATCC29213 assessed as bacterial growth inhibition incubated for 24 hrs by Muller Hinton broth based dilution assay; assay type: functional
Staphylococcus aureus [15] = assay: Disruption of preformed biofilm in Staphylococcus aureus ATCC29213 assessed as residual preformed biofilm at 6.25 ug/mL incubated for 24 hrs by crystal violet staining based analysis relative to control; assay type: functional; details: dose 6.25 µg/ml
[16] = Cytotoxicity against mouse J774.A1 cells assessed as viable cells at 6.25 ug/mL incubated for 24 hrs by CCK-8 assay relative to control; assay type: toxicity, cell-based; details: at 6.25 µg/mL, read-out: Activity
Candida albicans [17] = assay: Antimicrobial activity against Candida albicans ATCC10231 assessed as fungal growth inhibition incubated for 48 hrs by Sabouraud Dextrose broth based dilution assay; assay type: functional
[18] = Cytotoxicity against mouse J774.A1 cells assessed as viable cells at 12.5 ug/mL incubated for 24 hrs by CCK-8 assay relative to control; assay type: toxicity, cell-based; details: at 12.5 µg/mL, read-out: Activity
Staphylococcus aureus [19] = assay: Antimicrobial activity against Staphylococcus aureus ATCC29213 assessed as bacterial killing at 1 to 8 times of MIC measured upto 24 hrs by time-kill kinetics assay; assay type: functional, organism-based
Cell membrane [20] = assay: Disruption of membrane integrity in Escherichia coli ATCC25922 assessed as increase in fluorescence intensity at 1 to 8 times of MIC measured for 1 hr by SYTOX green dye based fluorescence analysis
Staphylococcus aureus [21] = assay: Antimicrobial activity against Staphylococcus aureus ATCC29213 assessed as bacterial growth inhibition incubated for 24 hrs in presence of 24.3 ug/mL Mg2+ by Muller Hinton broth based dilution assay; assay type: functional
Escherichia coli [22] = assay: Antimicrobial activity against Escherichia coli ATCC25922 assessed as bacterial growth inhibition incubated for 24 hrs by Muller Hinton broth based dilution assay; assay type: functional
[23] = Cytotoxicity against mouse NCTC clone 929 cells assessed as viable cells at 3.125 ug/mL incubated for 24 hrs by CCK-8 assay relative to control; assay type: toxicity, cell-based; details: NCTC clone 929 (L929) cells, at 3.125 µg/mL, read-out: Activity
Escherichia coli [24] = assay: Disruption of preformed biofilm in Escherichia coli ATCC25922 assessed as residual preformed biofilm at 25 ug/mL incubated for 24 hrs by crystal violet staining based analysis relative to control; assay type: functional; details: dose 25 µg/ml
Candida albicans [25] = assay: Antimicrobial activity against Candida albicans CMCC98001 assessed as fungal growth inhibition incubated for 48 hrs in presence of 175.5 ug/mL K+ by Sabouraud Dextrose broth based dilution assay; assay type: functional
Staphylococcus aureus [26] = assay: Disruption of preformed biofilm in Staphylococcus aureus ATCC29213 assessed as residual preformed biofilm at 0.78 ug/mL incubated for 24 hrs by crystal violet staining based analysis relative to control; assay type: functional; details: dose 0.78 µg/ml
[27] = Cytotoxicity against mouse J774.A1 cells assessed as viable cells at 25 ug/mL incubated for 24 hrs by CCK-8 assay relative to control; assay type: toxicity, cell-based; details: at 25 µg/mL, read-out: Activity
Escherichia coli [28] = assay: Antimicrobial activity against Escherichia coli ATCC25922 assessed as bacterial growth inhibition incubated for 24 hrs in presence of 175.5 ug/mL K+ by Muller Hinton broth based dilution assay; assay type: functional
[29] = Cytotoxicity against mouse NCTC clone 929 cells assessed as viable cells at 50 ug/mL incubated for 24 hrs by CCK-8 assay relative to control; assay type: toxicity, cell-based; details: NCTC clone 929 (L929) cells, at 50 µg/mL, read-out: Activity
Candida albicans [30] = assay: Antimicrobial activity against Candida albicans ATCC10231 assessed as fungal growth inhibition incubated for 48 hrs in presence of 100 ug/mL Ca2+ by Sabouraud Dextrose broth based dilution assay; assay type: functional
[31] = Cytotoxicity against mouse J774.A1 cells assessed as viable cells at 50 ug/mL incubated for 24 hrs by CCK-8 assay relative to control; assay type: toxicity, cell-based; details: at 50 µg/mL, read-out: Activity
Pseudomonas aeruginosa = assay: Antimicrobial activity against Pseudomonas aeruginosa ATCC9027 assessed as bacterial growth inhibition incubated for 24 hrs by Muller Hinton broth based dilution assay; assay type: functional
Escherichia coli [32] = assay: Induction of drug resistance in Escherichia coli ATCC25922 assessed as change in MIC at sub-inhibitory concentration incubated for 21 to 22 passages; assay type: functional
Cell membrane [33] = assay: Disruption of membrane integrity in Staphylococcus aureus ATCC29213 assessed as increase in fluorescence intensity at 1 to 8 times of MIC measured for 1 hr by SYTOX green dye based fluorescence analysis
Candida albicans [34] = assay: Antimicrobial activity against Candida albicans ATCC10231 assessed as fungal growth inhibition incubated for 48 hrs in presence of 175.5 ug/mL K+ by Sabouraud Dextrose broth based dilution assay; assay type: functional

SMILES | MIC (Candida albicans [1]) | viability at 24 h, 25 ug/mL [2] | Activity (Cell membrane [3]) | viability at 24 h, 25 ug/mL [4] | inhibition at 0.39 µg/mL (Staphylococcus aureus [5]) | Activity (Cell membrane [6]) | MIC (Escherichia coli [7]) | viability at 24 h, 3.125 ug/mL [8] | Activity (Staphylococcus aureus [9]) | Activity (Escherichia coli [10]) | MIC (Candida albicans [11]) | Activity (Staphylococcus aureus [12]) | MIC (Candida albicans [13]) | MIC (Staphylococcus aureus [14]) | Activity (Staphylococcus aureus [15]) | viability at 24 h, 6.25 ug/mL [16] | MIC (Candida albicans [17]) | viability at 24 h, 12.5 ug/mL [18] | Activity (Staphylococcus aureus [19]) | Activity (Cell membrane [20]) | further results
CCCCCCCCCN1CCCc2cc(OCCCCNC(=N)N)ccc21 | 0.78 µg/mL (≈ 2.01 µM) | 57.7% | Active | 72.9% | 65.2% | Active | 1.56 µg/mL | 98.3% | inactive | 15.34% | 1.56 µg/mL | 0.3% | 0.78 µg/mL | 1.56 µg/mL (≈ 4.01 µM) | 4.69% | 97.4% | 1.56 µg/mL (≈ 4.01 µM) | 91.9% | Dose-Dependent Effect | Dose-Dependent Effect | MIC (Staphylococcus aureus [21]): 0.78 µg/mL; MIC (Escherichia coli [22]): 1.56 µg/mL (≈ 4.01 µM); viability at 24 h, 3.125 ug/mL [23]: 95.5%; Activity (Escherichia coli [24]): 1.67%; MIC (Candida albicans [25]): 0.78 µg/mL; Activity (Staphylococcus aureus [26]): 71.31%; viability at 24 h, 25 ug/mL [27]: 72.6%; MIC (Escherichia coli [28]): 1.56 µg/mL; viability at 24 h, 50 ug/mL [29]: 23.7%; MIC (Candida albicans [30]): 1.56 µg/mL; viability at 24 h, 50 ug/mL [31]: 42.5%; MIC (Pseudomonas aeruginosa): 6.25 µg/mL (≈ 16.1 µM); Activity (Escherichia coli [32]): inactive; Activity (Cell membrane [33]): Dose-Dependent Effect; MIC (Candida albicans [34]): 1.56 µg/mL
CC(C)=CCN1CCCc2cc(OCCCCCCCCNC(=N)N)ccc21 | 0.78 µg/mL (≈ 2.02 µM) | 76.9% | Active | 77.9% | 50.2% | Active | 3.12 µg/mL | 99.5% | inactive | 18.49% | 1.56 µg/mL | 7.12% | 0.78 µg/mL | 1.56 µg/mL (≈ 4.04 µM) | 10.5% | 96.3% | 0.78 µg/mL (≈ 2.02 µM) | 90% | Dose-Dependent Effect | Dose-Dependent Effect | MIC (Staphylococcus aureus [21]): 0.78 µg/mL; MIC (Escherichia coli [22]): 3.12 µg/mL (≈ 8.08 µM); viability at 24 h, 3.125 ug/mL [23]: 95.5%; Activity (Escherichia coli [24]): 4.34%; MIC (Candida albicans [25]): 0.78 µg/mL; Activity (Staphylococcus aureus [26]): 70.52%; viability at 24 h, 25 ug/mL [27]: 58.8%; MIC (Escherichia coli [28]): 3.12 µg/mL; viability at 24 h, 50 ug/mL [29]: 29.9%; MIC (Candida albicans [30]): 1.56 µg/mL; viability at 24 h, 50 ug/mL [31]: 31.3%; MIC (Pseudomonas aeruginosa): 6.25 µg/mL (≈ 16.2 µM); Activity (Escherichia coli [32]): inactive; Activity (Cell membrane [33]): Dose-Dependent Effect; MIC (Candida albicans [34]): 0.78 µg/mL
